Columns and labels:
[1] = Benzylamine stability in control cell lysate (no SSAO expressed), LC/MS/MS; type: in vitro ADME; details: tag None
Experimental: (§1) Adherent CHO cells were cultured at 37° C., 5% CO2 in media containing Ham's F12, 10% fetal bovine serum, 2 mM L-glutamine, 1% Penicillin/Streptomycin, 300 μM hygromycin B. Adherent HEK 293 cells were cultured at 37° C., 5% CO2 in D-MEM (high glucose), 10% fetal bovine serum, 2 mM L-glutamine, and 200 μM hygromycin B. Stable transformants were identified by loss of zeocin resistance. Once the cells were 80% confluent, SSAO expression was induced by the addition of Tetracycline to 1 μg/mL. Following 18 hours, the cells were harvested using a trypsin treatment of 3 minutes, at room temperature. Cells were washed 3 times in phosphate buffered saline before flash freezing in liquid nitrogen.
(§2) For the preparation of cell lysate for activity testing, frozen cell pellets were resuspended in lysate buffer containing 10 mM Tris-HCl (pH 7.2), 150 mM NaCl, 1.5 mM MgCl2, 1% v/v NP-40 and incubated for 15 minutes on ice. Lysate was cleared by centrifugation 800×g for 10 minutes, 4° C. and stored in aliquots at −80° C. until use. Proteins were determined using Pierce Coomassie Protein Reagent, according to manufacturer's instructions.
(§3) For each assay run, 1 mL of cell lysate (1.5 mg/mL protein) was mixed with benzylamine to 2000 ng/mL final concentration. At each corresponding time point, […] the incubation mixture was transferred to a microcentrifuge tube (1.7 mL) and mixed with 50 μL of acetonitrile. The tubes were vortex mixed briefly to ensure complete mixing and then centrifuged at 10,000×g for 5 minutes. The supernatant was removed and 50 μL was transferred to an autosampler vial and mixed with 50 μL of water before LC/MS/MS analysis. Benzylamine remaining in the lysate was analyzed with LC/MS/MS method.
(§4) LC/MS/MS analysis was performed with a PE Sciex API 3000 mass spectrometer under the following conditions listed below and in Tables 1 and 2: […]

[2] = biological target: T1, human SSAO, full-length, C-terminal 6xHIS tag (Homo sapiens, UniProt Q16853); assay: Benzylamine stability in lysate of cells expressing full-length SSAO with C-terminal 6xHIS tag, LC/MS/MS; type: in vitro ADME
T1 construct: expressed in transfected cells; cell lysate
T1 sequence (Q16853 1-763): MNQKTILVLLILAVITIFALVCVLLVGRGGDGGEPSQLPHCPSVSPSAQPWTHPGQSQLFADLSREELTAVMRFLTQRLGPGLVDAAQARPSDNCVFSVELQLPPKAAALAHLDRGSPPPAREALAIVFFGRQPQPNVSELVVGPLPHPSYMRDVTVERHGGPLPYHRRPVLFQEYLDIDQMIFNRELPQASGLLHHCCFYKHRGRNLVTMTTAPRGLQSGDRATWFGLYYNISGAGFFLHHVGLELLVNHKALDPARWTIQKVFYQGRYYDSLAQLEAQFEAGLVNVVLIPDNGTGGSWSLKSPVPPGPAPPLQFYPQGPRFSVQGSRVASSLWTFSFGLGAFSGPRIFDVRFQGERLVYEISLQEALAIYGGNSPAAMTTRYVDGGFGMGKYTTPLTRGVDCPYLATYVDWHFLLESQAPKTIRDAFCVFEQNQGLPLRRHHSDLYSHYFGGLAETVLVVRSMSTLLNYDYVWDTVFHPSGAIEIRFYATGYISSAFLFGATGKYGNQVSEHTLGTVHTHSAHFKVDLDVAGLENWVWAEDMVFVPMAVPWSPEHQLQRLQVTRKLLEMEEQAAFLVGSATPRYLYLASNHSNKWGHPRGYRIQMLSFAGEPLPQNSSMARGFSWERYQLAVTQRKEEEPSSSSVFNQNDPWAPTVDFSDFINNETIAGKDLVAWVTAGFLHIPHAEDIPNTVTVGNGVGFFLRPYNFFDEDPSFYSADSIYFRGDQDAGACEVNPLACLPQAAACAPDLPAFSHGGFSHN
Experimental: The expression constructs were prepared by cloning these PCR products into the pCDNA5-FRT-To-DEST vector (Invitrogen, Gateway System™). The forward and reverse DNA sequence of each construct was confirmed including expressed sequences and at least 100 base pairs either side of this. Stable cell lines for Flp-In CHO, Flp-In CHO T-Rex, and Flp-In HEK 293 (Invitrogen, Flp-In system™) were generated using these 6 constructs according to manufacturer's instructions. Cells were co-transfected with the regulatory vector, pOG44, and each of the pCDNA5-FRT-To-DEST constructs using Lipfectamine (Invitrogen) according to manufacturer's instructions. Thus, 18 cell lines were generated: CHO Flp-In full-length SSAO; CHO Flp-In full-length SSAO with C-terminal 6×HIS tag; CHO Flp-In T1 SSAO; CHO Flp-In T1 SSAO with C-terminal 6×HIS tag; CHO Flp-In T2 SSAO; CHO Flp-In T2 SSAO with C-terminal 6×HIS tag; CHO T-Rex Flp-In full-length SSAO; CHO T-Rex Flp-In full-length SSAO with C-terminal 6×HIS tag; CHO T-Rex Flp-In T1 SSAO; CHO T-Rex Flp-In T1 SSAO with C-terminal 6×HIS tag; CHO T-Rex Flp-In T2 SSAO; CHO Flp-In T2 SSAO with C-terminal 6×HIS tag; HEK 293 Flp-In full-length SSAO; HEK 293 Flp-In full-length SSAO with C-terminal 6×HIS tag; HEK 293 Flp-In T1 SSAO; HEK 293 Flp-In T1 SSAO with C-terminal 6×HIS tag; HEK 293 Flp-In T2 SSAO; HEK 293 Flp-In T2 SSAO with C-terminal 6×HIS tag.
as §1, §2, §3, §4

Benzylamine Remaining (%) ([1]; CHO Flp-In T-Rex lysate, SSAO None, 0 min): 100%
Benzylamine Remaining (%) ([1]; CHO Flp-In T-Rex lysate, SSAO None, 10 min): 104%
Benzylamine Remaining (%) ([1]; CHO Flp-In T-Rex lysate, SSAO None, 2 h): 99%
Benzylamine Remaining (%) ([1]; Control CHO Flp-In lysate, SSAO none, 0 min): 100%
Benzylamine Remaining (%) ([1]; Control CHO Flp-In lysate, SSAO none, 10 min): 104%
Benzylamine Remaining (%) ([1]; Control CHO Flp-In lysate, SSAO none, 2 h): 99%
Benzylamine Remaining (%) ([1]; Control CHO lysate, SSAO none, 0 min): 100%
Benzylamine Remaining (%) ([1]; Control CHO lysate, SSAO none, 10 min): 111%
Benzylamine Remaining (%) ([1]; Control CHO lysate, SSAO none, 2 h): 110%
Benzylamine Remaining (%) ([1]; HEK293 control lysate, SSAO none, 0 min): 100%
Benzylamine Remaining (%) ([1]; HEK293 control lysate, SSAO none, 10 min): 106%
Benzylamine Remaining (%) ([1]; HEK293 control lysate, SSAO none, 2 h): 123%
Benzylamine Remaining (%) ([2]; CHO Flp-In T-Rex lysate, 0 min): 100%
Benzylamine Remaining (%) ([2]; CHO Flp-In T-Rex lysate, 10 min): 94%
Benzylamine Remaining (%) ([2]; CHO Flp-In T-Rex lysate, 2 h): 59%
Benzylamine Remaining (%) ([2]; CHO Flp-In lysate, 0 min): 100%
Benzylamine Remaining (%) ([2]; CHO Flp-In lysate, 10 min): 101%
Benzylamine Remaining (%) ([2]; CHO Flp-In lysate, 2 h): 73%
Benzylamine Remaining (%) ([2]; HEK293 lysate, 0 min): 100%
Benzylamine Remaining (%) ([2]; HEK293 lysate, 10 min): 105%
Benzylamine Remaining (%) ([2]; HEK293 lysate, 2 h): 98%
Structure (SMILES): NCc1ccccc1 [Benzylamine]
